Like-named read-outs stand apart in the source and are kept apart here.
Legend:
EBC-1 = assay: Cell viability / antiproliferative assay (WST-8), EBC-1; assay type: cell-based, human; details: read-out: EBC-1 IC50
Procedure: (§2) c-MET overexpressing human gastric cancer cell lines [MKN45] and [SNU638] were cultured in RPMI medium with 10% fetal bovine serum, penicillin (100U/ml), and streptomycin (100mg/ml), and c-MET exon 14 skipping mutant human gastric cancer cell lines [Hs746T] were cultured in DMEM media. The c-MET overexpressing human lung cancer cell line EBC-1 was cultured in MEM media with the addition of 10% fetal bovine serum, penicillin (100U/ml), and streptomycin (100mg/ml). […] The compound synthesized in accordance with the present invention was prepared with a raw material solution of 10 mM dissolved in DMSO (dimethyl sulfoxide), and was sequentially diluted and processed.
(§3) In order to observe the inhibitory activity on cell growth, cells were dispensed in a 96-well plate at a concentration of 5,000 cells/well, and then treated with the compound prepared at various concentrations for 72 hours. The viability of the cells was calculated using GraphicPad Prism 8.0 software by adding 10 ml per well of WST-8 (water soluble tetrazolium salt) sample, which reacts with dehydrogenase present in the electron transport system of mitochondria to produce formazon, incubated for 2 hours, and measured absorbance at 450 nm.

MKN-45 = assay: Cell viability / antiproliferative assay (WST-8), MKN-45; details: for IC50: Homo sapiens, MKN-45, 72 h, read-out: MKN-45 IC50;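 on all read-outs here: MKN-45 is a human gastric cancer line overexpressing c-MET, growth inhibition read as WST-8 formazan absorbance at 450 nm after 2 h dye incubation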
c-MET [1] = biological target: T1, c-MET (Homo sapiens, UniProt P08581); assay: c-MET protein degradation (Simple Western), MKN-45; assay type: cell-based; design: assess the resolution of the compound of the present invention for c-MET expressed in cells; endogenous in cells; host or cells: MKN45 (human gastric cancer); details: c-MET overexpressing gastric cancer cell line MKN-45, treated 24 hours; Table 2
Method in brief: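 c-MET level, GAPDH-normalized and relative to 0.1% DMSO-treated cells, measured by automated capillary Western (3 µg protein) after compound exposure of 48 h for lung or 24 h for gastric cancer lines; DC50 = concentration giving 50% reduction.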

SNU-638 = assay: Cell viability / antiproliferative assay (WST-8), SNU-638; assay type: cell-based, human; details: read-out: SNU-638 IC50
Procedure: as §2, §3

c-MET [2] = biological target: T1, c-MET; assay: c-MET protein degradation (Simple Western), EBC-1; assay type: cell-based; design: assess the resolution of the compound of the present invention for c-MET expressed in cells; endogenous in cells; host or cells: EBC-1 (human lung cancer); details: c-MET overexpressing lung cancer cell line EBC-1, treated 48 hours; Table 2
Procedure: (§1) In order to assess the resolution of the compound of the present invention for c-MET expressed in cells, cells were dispensed in a 12-well plate at a concentration of 2 × 10^5 cells/well, and then gastric cancer cell lines were treated with samples for 24 hours and lung cancer cell lines were treated for 48 hours. Cell lysates were collected using a scraper on ice, centrifuged at 4°C15,000 rpm for 30 min to obtain a protein-containing supernatant. Protein expression was then measured using the Simple Western Automated Western Blot System Abby instrument using 3 µg of protein for each sample. SDS and heat-induced denaturation proteins were separated by molecular weight, attached to capillary, reacted with anti-c-MET or anti-GAPDH antibodies, which are primary antibodies, and then reacted with HRP-conjugated secondary antibodies, and analyzed the protein expression signal with compass software. Protein expression was normalized based on the expression value of GAPDH, and protein development in each sample was measured as a percentage (%) based on 100% of samples treated with 0.1% DMSO carriers, and DC50 (concentration of a compound where 50% protein inhibition is achieved) was calculated from the change in protein expression amount due to compound treatment.

c-MET [3] = biological target: T1, c-MET; assay: c-MET protein degradation (Simple Western), SNU-638; assay type: cell-based; design: assess the resolution of the compound of the present invention for c-MET expressed in cells; endogenous in cells; host or cells: SNU638 (human gastric cancer); details: c-MET overexpressing gastric cancer cell line SNU-638, treated 24 hours
Procedure: as §1

T1 sequence (P08581 25-1390): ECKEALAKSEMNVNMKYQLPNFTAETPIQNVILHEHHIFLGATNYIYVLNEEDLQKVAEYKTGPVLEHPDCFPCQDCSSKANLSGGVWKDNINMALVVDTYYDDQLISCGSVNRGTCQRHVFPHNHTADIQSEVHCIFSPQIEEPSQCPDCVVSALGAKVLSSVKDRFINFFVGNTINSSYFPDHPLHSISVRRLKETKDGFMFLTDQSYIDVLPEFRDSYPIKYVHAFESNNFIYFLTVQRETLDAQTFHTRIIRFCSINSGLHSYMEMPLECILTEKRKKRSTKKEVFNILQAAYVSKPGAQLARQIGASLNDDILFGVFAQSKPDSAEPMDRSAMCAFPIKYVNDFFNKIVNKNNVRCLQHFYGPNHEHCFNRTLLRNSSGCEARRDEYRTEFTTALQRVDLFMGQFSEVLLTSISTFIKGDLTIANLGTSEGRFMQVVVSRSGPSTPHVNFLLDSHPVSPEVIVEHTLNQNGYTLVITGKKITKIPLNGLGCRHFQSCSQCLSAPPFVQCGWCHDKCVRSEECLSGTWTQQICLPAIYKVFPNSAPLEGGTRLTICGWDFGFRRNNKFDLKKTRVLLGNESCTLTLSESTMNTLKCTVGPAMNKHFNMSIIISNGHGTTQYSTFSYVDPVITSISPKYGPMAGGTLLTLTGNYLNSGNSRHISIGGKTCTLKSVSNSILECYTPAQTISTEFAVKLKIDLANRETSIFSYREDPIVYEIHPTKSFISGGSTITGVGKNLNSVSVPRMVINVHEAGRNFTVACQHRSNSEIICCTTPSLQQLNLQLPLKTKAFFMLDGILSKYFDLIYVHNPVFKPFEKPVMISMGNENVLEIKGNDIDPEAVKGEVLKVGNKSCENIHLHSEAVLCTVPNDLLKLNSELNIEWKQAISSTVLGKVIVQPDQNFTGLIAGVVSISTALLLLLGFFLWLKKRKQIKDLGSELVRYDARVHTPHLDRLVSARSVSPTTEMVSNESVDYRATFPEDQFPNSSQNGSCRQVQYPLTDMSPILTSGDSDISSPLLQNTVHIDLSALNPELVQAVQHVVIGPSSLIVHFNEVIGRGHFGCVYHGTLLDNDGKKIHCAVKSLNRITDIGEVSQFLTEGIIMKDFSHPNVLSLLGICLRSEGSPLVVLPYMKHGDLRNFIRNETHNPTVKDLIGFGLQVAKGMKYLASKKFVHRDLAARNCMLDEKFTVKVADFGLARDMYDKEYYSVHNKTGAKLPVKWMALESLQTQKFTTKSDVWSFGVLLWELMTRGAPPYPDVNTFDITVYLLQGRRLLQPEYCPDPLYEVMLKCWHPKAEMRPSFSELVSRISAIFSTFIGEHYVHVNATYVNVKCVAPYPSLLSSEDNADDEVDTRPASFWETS

For `Cc1nn(C2CCC(=O)NC2=O)c(=O)c2ccc(N3CCN(C(=O)C4CN(CC(=O)N5CCC(COc6cnc(-c7cccc(Cn8nc(-c9cccc(C#N)c9)ccc8=O)c7)nc6)CC5)C4)CC3)cc12` (stereo not drawn) [ICT-0001257], the IC50 (EBC-1; Homo sapiens, EBC-1, 72 h) was < 100 nM, the IC50 (MKN-45) was < 100 nM and the DC50 (c-MET [1]) was < 100 nM.

For `N#Cc1cccc(-c2ccc(=O)n(Cc3cccc(-c4ncc(OCC5CCN(c6ccc(NC7CCC(=O)NC7=O)cc6F)CC5)cn4)c3)n2)c1` (stereo not drawn) [ICT-0001383], the IC50 (SNU-638; Homo sapiens, SNU-638, 72 h) was < 100 nM, the IC50 (EBC-1; Homo sapiens, EBC-1, 72 h) was < 100 nM and the DC50 (c-MET [2]) was < 100 nM. For the same compound, the DC50 (c-MET [3]; Table 2) was < 100 nM.

For `Cc1nn(C2CCC(=O)NC2=O)c(=O)c2cc(N3CCN(CCN4CCC(COc5cnc(-c6cccc(Cn7nc(-c8cccc(C#N)c8)ccc7=O)c6)nc5)CC4)CC3)ccc12` (stereo not drawn) [ICT-0001278, 3-(1-{[3-(5-{[1-(2-{4-[3-(2,6-dioxopiperidin-3-yl)-1-methyl-4-oxo-3,4-dihydropthalazine-6-yl]piperazine-1-yl}ethyl)piperidine-4-day]methoxy}pyrimidine-2-yl)phenyl]methyl}6-oxo-1,6-dihydropyridazine-3-yl)benzonitrile], the IC50 (MKN-45) was < 100 nM and the DC50 (c-MET [2]) was > 1000 nM.

With `N#Cc1cccc(-c2ccc(=O)n(Cc3cccc(-c4ncc(OCC5CCN(CC(=O)N6CC(N7CCN(c8ccc9c(=O)n(C%10CCC(=O)NC%10=O)ncc9c8)CC7)C6)CC5)cn4)c3)n2)c1` (stereo not drawn) [ICT-0001232] the IC50 (EBC-1; Homo sapiens, EBC-1, 72 h) was < 100 nM, the IC50 (MKN-45) was < 100 nM and the DC50 (c-MET [2]) was < 100 nM. For the same compound, the DC50 (c-MET [1]) was < 100 nM and the DC50 (c-MET [3]; Table 2) was < 100 nM.

For `Cc1nn(C2CCC(=O)NC2=O)c(=O)c2ccc(N3CCN(C4CN(CCN5CCC(COc6cnc(-c7cccc(Cn8nc(-c9cccc(C#N)c9)ccc8=O)c7)nc6)CC5)C4)CC3)cc12` (stereo not drawn) [ICT-0001325], the IC50 (SNU-638; Homo sapiens, SNU-638, 72 h) was < 100 nM and the DC50 (c-MET [3]; Table 2) was > 1000 nM.

For `Cc1nn(C2CCC(=O)NC2=O)c(=O)c2ccc(N3CCN(C(=O)C4CCN(CC(=O)N5CCC(COc6cnc(-c7cccc(Cn8nc(-c9cccc(C#N)c9)ccc8=O)c7)nc6)CC5)CC4)CC3)cc12` (stereo not drawn) [ICT-0001218], the IC50 (SNU-638; Homo sapiens, SNU-638, 72 h) was < 100 nM, the IC50 (MKN-45) was < 100 nM and the DC50 (c-MET [1]) was < 100 nM. For the same compound, the DC50 (c-MET [3]; Table 2) was < 100 nM.

In the case of `N#Cc1cccc(-c2ccc(=O)n(Cc3cccc(-c4ncc(-c5cccc(CN6CCN(c7ccc(NC8CCC(=O)NC8=O)cc7F)CC6)c5)cn4)c3)n2)c1` (stereo not drawn) [ICT-0001434], the IC50 (SNU-638; Homo sapiens, SNU-638, 72 h) is reported as < 100 nM, the IC50 (EBC-1; Homo sapiens, EBC-1, 72 h) is reported as < 100 nM and the DC50 (c-MET [2]) is reported as < 100 nM. The DC50 (c-MET [3]; Table 2) was > 1000 nM.

With `Cn1cc(-c2cnc3c(nnn3C[C@@H]3CN(c4ncc(-c5ccc(CN6CCN(CC(=O)N7CCN(c8ccc(NC9CCC(=O)NC9=O)cc8F)CC7)CC6)cc5)cn4)CCO3)n2)cn1` (stereo partly drawn) [ICT-0001379] the IC50 (SNU-638; SNU-638 cells, 72 hours, WST-8, Table 1) was < 100 nM, the IC50 (EBC-1; EBC-1 cells, 72 hours, WST-8, Table 1) was < 100 nM and the DC50 (c-MET [3]; Table 1) was < 100 nM.

`N#Cc1cccc(-c2ccc(=O)n(Cc3cccc(-c4ncc(-c5cccc(CN6CCC(CN7CCN(c8ccc(NC9CCC(=O)NC9=O)cc8F)CC7)CC6)c5)cn4)c3)n2)c1` (stereo not drawn) [ICT-0001450] was tested, and the IC50 (SNU-638; Homo sapiens, SNU-638, 72 h) was < 100 nM, the IC50 (EBC-1; Homo sapiens, EBC-1, 72 h) was < 100 nM and the DC50 (c-MET [2]) was < 100 nM.

In the case of `N#Cc1cccc(-c2ccc(=O)n(Cc3cccc(-c4ncc(-c5cccc(CN6CCN(c7ccc(C8CCC(=O)NC8=O)cn7)CC6)c5)cn4)c3)n2)c1` (stereo not drawn) [ICT-0001449], the IC50 (SNU-638; Homo sapiens, SNU-638, 72 h) is reported as < 100 nM, the IC50 (EBC-1; Homo sapiens, EBC-1, 72 h) is reported as < 100 nM and the DC50 (c-MET [2]) is reported as < 100 nM. The DC50 (c-MET [3]; Table 2) was > 1000 nM.

With `Cn1cc(-c2cnc3c(nnn3C[C@@H]3CN(c4ncc(-c5ccc(CN6CCN(c7ccc(NC8CCC(=O)NC8=O)cc7F)CC6)cc5)cn4)CCO3)n2)cn1` (stereo partly drawn) [ICT-0001403, 3-((3-fluoro-4-(4-(4-(2-((S)-2-((5-(1-methyl-1H-pyrazole-4-yl)-1H-[1,2,3]triazolo[4,5-b]pyrazine-1-yl)methyl)morpholino)pyrimidine-5-yl)benzyl)piperazine-1-yl)phenyl)amino)piperidine-2,6-dione] the IC50 (SNU-638; Homo sapiens, SNU-638 cells, 72 hours, WST-8, Table 1) was < 100 nM and the IC50 (EBC-1; Homo sapiens, EBC-1 cells, 72 hours, WST-8, Table 1) was < 100 nM.

In the case of `N#Cc1cccc(-c2ccc(=O)n(Cc3cccc(-c4ncc(OCC5CCN(CC(=O)N6CCN(CC7CCN(c8ccc(NC9CCC(=O)NC9=O)cc8F)CC7)CC6)CC5)cn4)c3)n2)c1` (stereo not drawn) [ICT-0001468, 3-(1-{[3-(5-{[1-(2-{4-[(1-{4-[(2,6-dioxopiperidin-3-yl)amino]-2-fluorophenyl}piperidine-4-yl)methyl]piperazine-1-yl}-2-oxoethyl)piperidine-4-yl]methoxy}pyrimidine-2-yl)phenyl]methyl}-6-oxo-1,6-dihydropyridazine-3-yl)benzonitrile], the IC50 (SNU-638; Homo sapiens, SNU-638 cells, 72 hours, WST-8, Table 2) is reported as < 100 nM, the IC50 (EBC-1; Homo sapiens, EBC-1 cells, 72 hours, WST-8, Table 2) is reported as < 100 nM and the DC50 (c-MET [2]) is reported as < 100 nM. For the same compound, the DC50 (c-MET [3]; Table 2) was 100 to 1000 nM.

`N#Cc1cccc(-c2ccc(=O)n(Cc3cccc(-c4ncc(OCC5CCN(CCN6CCN(c7ccc(NC8CCC(=O)NC8=O)cc7F)CC6)CC5)cn4)c3)n2)c1` (stereo not drawn) [ICT-0001433, 3-(1-(3-(5-((1-(1-(2-(4-((2,6-dioxopiperidine-3-yl)amino)-2-fluorophenyl)piperazine-1-il)ethyl)piperidine-4-il)methoxy)pyrimidine-2-yl)benzyl)6-oxo-1,6-dihydropyridazine-3-yl)benzonitrile] was tested, and the IC50 (SNU-638; Homo sapiens, SNU-638, 72 h) was < 100 nM, the IC50 (EBC-1; Homo sapiens, EBC-1, 72 h) was < 100 nM and the DC50 (c-MET [2]) was < 100 nM. The DC50 (c-MET [3]; Table 2) was < 100 nM.

With `N#Cc1cccc(-c2ccc(=O)n(Cc3ccc(-c4ncc(OCC5CCN(CCCC#Cc6cccc7c(=O)n(C8CCC(=O)NC8=O)ncc67)CC5)cn4)cc3)n2)c1` (stereo not drawn) [ICT-0001303] the IC50 (SNU-638; SNU-638 cells, 72 hours, WST-8, Table 2) was < 100 nM and the DC50 (c-MET [3]; Table 2) was 100 to 1000 nM.

With `N#Cc1cccc(-c2ccc(=O)n(Cc3cccc(-c4ncc(OCC5CCN(CCN6CCN(c7ccc8c(=O)n(C9CCC(=O)NC9=O)ncc8c7)CC6)CC5)cn4)c3)n2)c1` (stereo not drawn) [ICT-0001276, 3-(1-{[3-(5-{[1-(2-{4-[2-(2,6-dioxopiperidin-3-yl)-1-oxo-1,2-dihydropetalazine-6-yl]piperazine-1-il}ethyl)piperidine-4-il]methoxy}pyrimidine-2-yl)phenyl]methyl}-6-oxo-1,6-dihydropyridazine-3-yl)benzonitrile] the IC50 (SNU-638; Homo sapiens, SNU-638, 72 h) was < 100 nM, the IC50 (MKN-45) was < 100 nM and the DC50 (c-MET [2]) was > 1000 nM. The DC50 (c-MET [1]) was < 100 nM.

With `Cc1nn(C2CCC(=O)NC2=O)c(=O)c2c(NCC(=O)N3CCC(CN4CCC(COc5cnc(-c6cccc(Cn7nc(-c8cccc(C#N)c8)ccc7=O)c6)nc5)CC4)CC3)cccc12` (stereo not drawn) [ICT-0000980] the IC50 (SNU-638; Homo sapiens, SNU-638, 72 h) was 100 to 1000 nM, the IC50 (MKN-45) was < 100 nM and the DC50 (c-MET [1]) was < 100 nM. For the same compound, the DC50 (c-MET [3]; Table 2) was > 1000 nM.

`Cc1nn(C2CCC(=O)NC2=O)c(=O)c2cc(N3CCN(c4ccc(NCC(=O)N5CCC(COc6cnc(-c7cccc(Cn8nc(-c9cccc(C#N)c9)ccc8=O)c7)nc6)CC5)cc4)CC3)ccc12` (stereo not drawn) [ICT-0001262, 3-(1-(3-(5-((1-((4-(4-(3-(2,6-dioxopiperidin-3-yl)-1-methyl-4-oxo-3,4-dihydropthalazine-6-yl)piperazine-1-yl)phenyl)glycy)piperidine-4-il)methoxy)pyrimidine-2-yl)benzyl)6-oxo-1,6-dihydropyridazine-3-yl)benzonitrile] was tested, and the IC50 (EBC-1; Homo sapiens, EBC-1, 72 h) was < 100 nM, the IC50 (MKN-45) was < 100 nM and the DC50 (c-MET [1]) was < 100 nM.

With `N#Cc1cccc(-c2ccc(=O)n(Cc3cccc(-c4ncc(OCC5CCN(C(=O)CN6CCN(c7ccc8c(=O)n(C9CCC(=O)NC9=O)ncc8c7)CC6)CC5)cn4)c3)n2)c1` (stereo not drawn) [ICT-0000979, 3-(1-{[3-(5-{[1-(2-{4-[2-(2,6-dioxopiperidine-3-yl)-1-oxo-1,2-dihydrophthalazine-6-yl]piperazine-1-day}acetyl)piperidine-4-yl]methoxy}pyrimidine-2-yl)phenyl]methyl}-6-oxo-1,6-dihydropyridazine-3-yl)benzonitrile] the IC50 (SNU-638; Homo sapiens, SNU-638, 72 h) was 100 to 1000 nM, the “MKN-45 IC50” value (MKN-45; MKN-45 cells, 72 hours, WST-8, Table 2) was “A” and the DC50 (c-MET [1]) was < 100 nM. It also gave a DC50 (c-MET [3]; Table 2) of 100 to 1000 nM.

For `Cc1nn(C2CCC(=O)NC2=O)c(=O)c2cc(N3CCN(CC4CCN(CCN5CCC(COc6cnc(-c7cccc(Cn8nc(-c9cccc(C#N)c9)ccc8=O)c7)nc6)CC5)CC4)CC3)c(F)cc12` (stereo not drawn) [ICT-0001326], the IC50 (SNU-638; Homo sapiens, SNU-638, 72 h) was 100 to 1000 nM and the DC50 (c-MET [3]; Table 2) was > 1000 nM.

Reference: EP4624466A1, “DEGRADER FOR DECOMPOSING CMET PROTEIN, AND PHARMACEUTICAL COMPOSITION COMPRISING SAME” (Innocure Therapeutics, Inc., priority 2022, dated 2024)
